Assay results published in patent US7588788B2, “Immune modulation and anti-allergy activities of Zingiber zerumbet” (Wholesome Life Science Co., Ltd., priority 2004, dated 2009).

How the values were obtained:
[1] = tested on: Rat Basophilic Leukemia-1 (RBL-1) cell, LTC4 secretion; assay: LTC4 released by A23187 stimulated leukemia cells (ELISA); type: cell-based; settings: compound identified from the most active fraction
Method: Cell culture and drug treatment: Rat Basophilic Leukemia-1 (RBL-1) was purchased from Food Industry Research and Development Institute (CCRC 60198, ATCC CRL-1378), and cultured in MEM-alpha medium (Gibco, 12000). All trans-retinoic acid (1 μg/ml) was added to a 3.5 cm diameter well (6-well plate) at 2×10^6 cells/2 ml/well. Plates were then incubated at 37° C. with 5% CO2 in air for 16 hr. Various volumes of ZZ samples were added to the wells to make the appropriate final concentrations (0, 0.5, 5, 50 μg/ml) and incubated for 2 more hours. A23187 (calcium ionophore) was added to each well to reach the final concentration of 10 μM to stimulate RBL-1 cells to release LTC4/cLTs for 15 min. The mediums in the wells were centrifuged at 5000 rpm for 10 min to obtain the supernatant for ELISA assay.
LTC4/cLTs ELISA assay: The supernatants of the cell cultures were diluted into appropriate concentrations before the EIA analysis for LTC4/cLTs. Analysis was performed according to the procedures provided by the manufacturer.

Th1/Th2 immune responses = assay: Active compound identification by in vitro bioactive screening of purification fractions; type: cell-based; settings: compound identified from active fractions

Structure (SMILES) | effect of suppressing LTC4 [1] | increase of the IFN-γ/IL-4 gene expression ratio (Th1/Th2 immune responses)
COc1c(-c2ccc(O)cc2)oc2cc(O)cc(O)c2c1=O [5,7-dihydroxy-2-(4-hydroxy-phenyl)-3-methoxy-chromen-4-one] | active compound | 
C/C1=C\CC(C)(C)/C=C/C(=O)/C(C)=C/CC1 [Zerumbone, zerumbone] |  | active ingredient
